From ChEMBL document CHEMBL1129704, “Synthesis, biological activity and quantitative structure-activity relationships of N-substituted-3,4-dihydro-2H-1-benzopyran derivatives” (Bioorg Med Chem Lett, 1996)

What was measured:
[1] = target: T1, 5-hydroxytryptamine receptor 1B (Homo sapiens, UniProt P28222); assay: Binding affinity towards 5-hydroxytryptamine 1B receptor by displacement of [3H]5-HT.
[2] = target: T2, 5-hydroxytryptamine receptor 1A (Homo sapiens, UniProt P08908); assay: Binding affinity towards 5-hydroxytryptamine 1A receptor by displacement of [3H]8-OH-DPAT.
T2 sequence (P08908 whole entry): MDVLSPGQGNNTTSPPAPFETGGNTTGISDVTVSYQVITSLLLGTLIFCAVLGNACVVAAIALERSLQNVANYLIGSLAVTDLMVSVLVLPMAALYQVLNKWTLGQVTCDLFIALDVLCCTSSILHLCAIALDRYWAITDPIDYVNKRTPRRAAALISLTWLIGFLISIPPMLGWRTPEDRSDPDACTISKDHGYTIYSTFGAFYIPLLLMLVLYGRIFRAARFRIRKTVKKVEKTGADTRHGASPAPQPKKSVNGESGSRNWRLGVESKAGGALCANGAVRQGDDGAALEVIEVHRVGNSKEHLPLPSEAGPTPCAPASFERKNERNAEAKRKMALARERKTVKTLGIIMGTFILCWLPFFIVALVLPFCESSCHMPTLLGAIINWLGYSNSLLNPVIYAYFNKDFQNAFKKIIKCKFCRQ

D(2) dopamine receptor [3] = target: T3, D(2) dopamine receptor (Homo sapiens, UniProt P14416); assay: Binding affinity towards Dopamine receptor D2 by displacement of [3H]-Raclopride.
D(1A) dopamine receptor [4] = target: T4, D(1A) dopamine receptor (Homo sapiens, UniProt P21728); assay: Binding affinity towards Dopamine receptor D1 by displacement of [3H]SCH-23,390
[5] = target: 5-hydroxytryptamine receptor 2A (Homo sapiens, UniProt P28223); assay: Binding affinity towards 5-hydroxytryptamine 2A receptor by displacement of [3H]ketanserin
D(2) dopamine receptor [6] = target: T3, D(2) dopamine receptor; assay: Compound was evaluated for the binding affinity towards Dopamine receptor D2 by displacement of […].
[7] = target: T1, 5-hydroxytryptamine receptor 1B; assay: Compound was evaluated for the binding affinity towards 5-hydroxytryptamine 1B receptor by displacement of […].
D(1A) dopamine receptor [8] = target: T4, D(1A) dopamine receptor; assay: Compound was evaluated for the binding affinity towards Dopamine receptor D1 by displacement of […].
[9] = target: T5, 5-hydroxytryptamine receptor 2C (Homo sapiens, UniProt P28335); assay: Compound was evaluated for the binding affinity towards 5-hydroxytryptamine 2C receptor by displacement of [3H]-Ketanserin
T5 sequence (P28335 whole entry): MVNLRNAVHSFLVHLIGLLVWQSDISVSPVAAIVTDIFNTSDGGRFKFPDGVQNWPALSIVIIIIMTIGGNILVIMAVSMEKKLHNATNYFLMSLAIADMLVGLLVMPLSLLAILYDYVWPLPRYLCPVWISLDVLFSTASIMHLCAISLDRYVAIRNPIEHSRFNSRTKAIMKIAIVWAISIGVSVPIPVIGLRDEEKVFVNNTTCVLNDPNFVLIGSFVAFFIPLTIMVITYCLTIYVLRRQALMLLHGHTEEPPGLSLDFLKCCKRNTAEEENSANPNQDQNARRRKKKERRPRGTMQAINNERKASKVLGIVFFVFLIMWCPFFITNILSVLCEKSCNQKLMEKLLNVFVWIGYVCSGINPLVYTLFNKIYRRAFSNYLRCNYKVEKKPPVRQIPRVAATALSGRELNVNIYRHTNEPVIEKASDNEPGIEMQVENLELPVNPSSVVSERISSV

D(1A) dopamine receptor [10] = target: T4, D(1A) dopamine receptor; assay: Compound was evaluated for the Dopamine receptor D1 by displacement of [3H]SCH-23390.

T4 sequence (P21728 whole entry): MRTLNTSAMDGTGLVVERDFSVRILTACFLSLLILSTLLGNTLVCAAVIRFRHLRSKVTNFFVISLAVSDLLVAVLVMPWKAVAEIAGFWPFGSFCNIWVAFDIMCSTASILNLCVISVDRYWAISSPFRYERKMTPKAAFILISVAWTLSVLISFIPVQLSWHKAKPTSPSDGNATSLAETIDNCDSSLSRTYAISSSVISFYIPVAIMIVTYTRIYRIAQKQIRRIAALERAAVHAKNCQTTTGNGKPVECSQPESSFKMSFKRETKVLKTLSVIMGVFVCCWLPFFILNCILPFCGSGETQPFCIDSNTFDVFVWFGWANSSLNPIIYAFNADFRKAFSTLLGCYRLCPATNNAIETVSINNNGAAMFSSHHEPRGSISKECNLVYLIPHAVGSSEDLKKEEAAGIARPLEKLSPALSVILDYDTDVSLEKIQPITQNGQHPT
T3 sequence (P14416 whole entry): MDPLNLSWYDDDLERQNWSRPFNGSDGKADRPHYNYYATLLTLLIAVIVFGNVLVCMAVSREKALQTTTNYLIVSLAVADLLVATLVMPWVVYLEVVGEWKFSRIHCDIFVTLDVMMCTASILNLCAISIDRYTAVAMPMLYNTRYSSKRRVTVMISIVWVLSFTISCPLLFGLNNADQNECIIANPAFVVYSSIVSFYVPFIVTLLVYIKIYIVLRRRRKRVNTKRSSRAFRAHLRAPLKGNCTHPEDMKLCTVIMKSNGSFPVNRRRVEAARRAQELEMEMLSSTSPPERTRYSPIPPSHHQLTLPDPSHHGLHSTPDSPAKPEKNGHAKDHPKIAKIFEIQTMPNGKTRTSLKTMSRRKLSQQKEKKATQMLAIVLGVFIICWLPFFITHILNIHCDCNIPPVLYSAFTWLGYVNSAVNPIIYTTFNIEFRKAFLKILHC
T1 sequence (P28222 whole entry): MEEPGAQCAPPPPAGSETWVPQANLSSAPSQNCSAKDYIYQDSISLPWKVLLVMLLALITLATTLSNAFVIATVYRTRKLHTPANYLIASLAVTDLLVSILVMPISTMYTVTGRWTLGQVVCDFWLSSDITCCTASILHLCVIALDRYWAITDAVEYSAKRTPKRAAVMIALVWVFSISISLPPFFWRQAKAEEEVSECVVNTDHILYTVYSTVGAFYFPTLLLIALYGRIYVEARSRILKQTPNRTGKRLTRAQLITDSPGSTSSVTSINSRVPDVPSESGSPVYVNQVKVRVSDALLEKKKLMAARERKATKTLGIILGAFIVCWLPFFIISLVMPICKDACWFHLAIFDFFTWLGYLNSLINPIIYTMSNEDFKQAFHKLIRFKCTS
Chain of 5-hydroxytryptamine receptor 2A (P28223 whole entry): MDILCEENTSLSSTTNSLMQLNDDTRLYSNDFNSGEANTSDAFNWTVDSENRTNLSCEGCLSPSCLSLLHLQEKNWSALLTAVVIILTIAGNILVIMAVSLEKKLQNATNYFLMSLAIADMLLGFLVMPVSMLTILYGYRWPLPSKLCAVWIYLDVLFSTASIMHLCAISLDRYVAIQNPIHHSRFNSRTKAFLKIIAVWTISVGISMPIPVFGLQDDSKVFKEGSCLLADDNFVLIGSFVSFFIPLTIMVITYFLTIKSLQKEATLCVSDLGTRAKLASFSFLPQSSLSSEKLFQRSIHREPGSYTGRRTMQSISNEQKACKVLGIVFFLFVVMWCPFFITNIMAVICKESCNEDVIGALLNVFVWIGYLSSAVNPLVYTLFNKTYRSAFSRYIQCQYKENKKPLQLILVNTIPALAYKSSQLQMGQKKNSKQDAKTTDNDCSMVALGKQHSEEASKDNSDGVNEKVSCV

| Compound | IC50 [1] | IC50 [2] | IC50 (D(2) dopamine receptor [3]) | IC50 (D(1A) dopamine receptor [4]) | IC50 [5] | IC50 (D(2) dopamine receptor [6]) | IC50 [7] | IC50 (D(1A) dopamine receptor [8]) | IC50 [9] | IC50 (D(1A) dopamine receptor [10]) |
| --- | --- | --- | --- | --- | --- | --- | --- | --- | --- | --- |
| COc1cccc2c1CC1(CCCN1CCCCN1C(=O)CC3(CCCC3)CC1=O)CO2 (stereo unspecified) | 3.8 µM | 0.0107 µM |  | > 10 µM |  | 1.1 µM | 6.61 µM |  |  |  |
| CCCN(CCC)CC1(N(CCC)CCC)COc2cccc(OC)c2C1 (stereo unspecified) | 138 µM | 4.17 µM |  |  | 214 µM |  |  |  |  |  |
| CCCN1CCN(Cc2ccccc2)CC12COc1cccc(OC)c1C2 (stereo unspecified) | 35.5 µM | 15.8 µM |  |  | 24.5 µM |  |  |  |  |  |
| CCCN(CCC)CC1COc2cccc(OC)c2C1 (stereo unspecified) | 22.9 µM | 0.234 µM | 2.57 µM |  | 15.8 µM |  |  | 34.7 µM | 33.9 µM |  |
| CCCN1CCN(CCC)C2(COc3cccc(OC)c3C2)C1 (stereo unspecified) | > 100 µM | 3.02 µM |  |  | 10 µM |  |  |  |  |  |
| CCCN1CCN(CCCCN2C(=O)CC3(CCCC3)CC2=O)CC12COc1cccc(OC)c1C2 (stereo unspecified) | 1.58 µM | 15.8 µM |  |  | 11.2 µM |  |  |  |  |  |

Results, then the compound that gave them:

| IC50 [1] | IC50 [2] | IC50 (D(2) dopamine receptor [3]) | IC50 (D(1A) dopamine receptor [4]) | IC50 [5] | IC50 (D(2) dopamine receptor [6]) | IC50 [7] | IC50 (D(1A) dopamine receptor [8]) | IC50 [9] | IC50 (D(1A) dopamine receptor [10]) | Compound |
| --- | --- | --- | --- | --- | --- | --- | --- | --- | --- | --- |
| 7.41 µM | 0.513 µM | 1.78 µM | 13.8 µM | 7.76 µM |  |  |  |  |  | CCCN(CCCCN1C(=O)CC2(CCCC2)CC1=O)CC1COc2cccc(OC)c2C1 (stereo unspecified) |
| 6.92 µM | 0.00631 µM | 0.0676 µM | 3.31 µM | 0.0562 µM |  |  |  |  |  | O=C1CC2(CCCC2)CC(=O)N1CCCCNCC1COc2ccccc2C1 (stereo unspecified) |
|  |  | 0.01 µM |  | 1 µM |  |  |  |  | 39.8 µM | CCCN(CCCCN1C(=O)CC2(CCCC2)CC1=O)C1COc2cccc(OC)c2C1 (stereo unspecified) |
| 3.02 µM | 0.000129 µM | 0.0295 µM | 0.832 µM | 0.049 µM |  |  |  |  |  | COc1cccc2c1CC(CNCCCCN1C(=O)CC3(CCCC3)CC1=O)CO2 (stereo unspecified) |
